Where a SMILES comes first, the peptide text is derived from it. Bridges are numbered along the chain shown (N, C = ends). [ ]: non-standard residue; d: D form. Hyp = O=C(O)[C@@H]1C[C@@H](O)CN1; NMeNle = CCCC[C@H](NC)C(=O)O; NMeA = CN[C@@H](C)C(=O)O; Orn = NCCC[C@H](N)C(=O)O; Dab = NCC[C@H](N)C(=O)O; Sar = CNCC(=O)O

This test has as its target PD-1-Ig binding to PD-L1-TVMV-His (PD-L1-His) (Homo sapiens (Human), UniProt Q9NZQ7). Put plainly: PD-1/PD-L1 Homogenous Time-Resolved Fluorescence (HTRF) binding assay (PD-1-Ig/PD-L1-His). The following applies: PD-1-Ig (20 nM)/PD-L1-His (10 nM). From the text: Methods for Testing the Ability of Macrocyclic Compounds to Compete for the Binding of PD-1 to PD-L1 Using Homogenous Time-Resolved Fluorescence (HTRF) Binding Assays
The ability of the macrocyclic compounds of the present disclosure to bind to PD-L1 was investigated using a PD-1/PD-L1 Homogenous Time-Resolved Fluorescence (HTRF) binding assay.
Homogenous Time-Resolved Fluorescence (HTRF) Assays of Binding of Soluble PD-1 to Soluble PD-L1. Soluble PD-1 and soluble PD-L1 refers to proteins with carboxyl-end truncations that remove the transmembrane-spanning regions and are fused to heterologous sequences, specifically the Fc portion of the human immunoglobulin G sequence (Ig) or the hexahistidine epitope tag (His). All binding studies were performed in an HTRF assay buffer consisting of dPBS supplemented with 0.1% (w/v) bovine serum albumin and 0.05% (v/v) Tween-20. For the PD-1-Ig/PD-L1-His binding assay, inhibitors were pre-incubated with PD-L1-His (10 nM final) for 15 m in 4 μl of assay buffer, followed by addition of PD-1-Ig (20 nM final) in 1 μl of assay buffer and further incubation for 15 m. PD-L1 fusion proteins from either human, cynomologous macaques, mouse, or other species were used. HTRF detection was achieved using europium crypate-labeled anti-Ig monoclonal antibody (1 nM final) and allophycocyanin (APC) labeled anti-His monoclonal antibody (20 nM final). Antibodies were diluted in HTRF detection buffer and 5 μl was dispensed on top of binding reaction. […] Additional binding assays were established between PD-1-Ig/PD-L2-His (20 and 5 nM, respectively), CD80-His/PD-L1-Ig (100 and 10 nM, respectively) and CD80-His/CTLA4-Ig (10 and 5 nM, respectively).
Recombinant Proteins. […] Human PD-L2-His (Sino Biologicals), CD80-His (Sino Biologicals), CTLA4-Ig (RnD Systems) were all obtained through commercial sources.

PD-1-Ig binding to PD-L1-TVMV-His (PD-L1-His), sequence (Q9NZQ7 other isoform, or with tags, fused parts or gaps): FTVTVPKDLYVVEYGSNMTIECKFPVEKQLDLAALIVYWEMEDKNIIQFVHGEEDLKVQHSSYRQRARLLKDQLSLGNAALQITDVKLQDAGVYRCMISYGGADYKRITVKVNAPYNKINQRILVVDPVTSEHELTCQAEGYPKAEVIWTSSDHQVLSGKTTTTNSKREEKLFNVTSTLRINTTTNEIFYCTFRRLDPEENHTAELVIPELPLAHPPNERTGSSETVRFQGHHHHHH

As a reminder, the IC50 is the concentration that inhibits the measured activity by half. The low end stands for inhibition by little substance, the high end for a need for much substance. As for `CCCC[C@H]1C(=O)N(C)[C@@H](CCCC)C(=O)N[C@@H](CCCNC(=N)N)C(=O)N[C@H](C(=O)NCC(N)=O)CSCC(=O)N[C@@H](Cc2ccc(O)cc2)C(=O)N(C)[C@@H](C)C(=O)N[C@H]2CCNC(=O)CC[C@H](NC(=O)[C@H](C)NC(=O)[C@@H]3CCCN3C2=O)C(=O)N2C[C@H](O)C[C@H]2C(=O)N[C@@H](Cc2c[nH]c3ccccc23)C(=O)N[C@@H](CO)C(=O)N[C@@H](Cc2c[nH]c3ccccc23)C(=O)N1C` [Example 1400] ({CH2CO}-Y[NMeA][Dab]PAE[Hyp]WSW[NMeNle][NMeNle]RCG-NH2; lactam 3-6; thioether N-14), where the note is “range classes”, the half-maximal inhibitory concentration (IC50) was 10 to 99 nM.
On the same count and under the same terms, the result for `CCCC[C@H]1C(=O)N(C)[C@@H](CCCC)C(=O)N[C@@H](C)C(=O)N[C@H]2CSCC(=O)N[C@@H](Cc3ccc(O)cc3)C(=O)N(C)[C@@H](C)C(=O)N[C@@H](CC(N)=O)C(=O)N3CCC[C@H]3C(=O)N[C@@H](Cc3cn(C(=O)C(F)(F)F)cn3)C(=O)N[C@@H](CC(C)C)C(=O)N[C@@H](CCCNC(=O)CNC2=O)C(=O)N[C@@H](Cc2c[nH]c3ccccc23)C(=O)N[C@@H](CO)C(=O)N[C@@H](Cc2c[nH]c3ccccc23)C(=O)N1C` [Example 1401] reads 10 to 99 nM; that for `CCCC[C@H]1C(=O)N(C)[C@@H](CCCC)C(=O)N[C@@H](CCCNC(=N)N)C(=O)N[C@H](C(=O)NCC(N)=O)CSCC(=O)N[C@@H](Cc2ccc(O)cc2)C(=O)N(C)[C@@H](C)C(=O)N[C@H]2CCCNC(=O)CC[C@H](NC(=O)[C@H](C)NC(=O)[C@@H]3CCCN3C2=O)C(=O)N2C[C@H](O)C[C@H]2C(=O)N[C@@H](Cc2c[nH]c3ccccc23)C(=O)N[C@@H](CO)C(=O)N[C@@H](Cc2c[nH]c3ccccc23)C(=O)N1C` [Example 1402] ({CH2CO}-Y[NMeA][Orn]PAE[Hyp]WSW[NMeNle][NMeNle]RCG-NH2; lactam 3-6; thioether N-14), 10 to 99 nM.
Take `CCCC[C@H]1C(=O)N(C)[C@@H](CCCC)C(=O)N[C@@H](C)C(=O)N[C@H](C(=O)NCC(N)=O)CSCC(=O)N[C@@H](Cc2ccc(O)cc2)C(=O)N(C)[C@@H](C)C(=O)N[C@H]2CCCNC(=O)CC[C@@H](NC(=O)[C@H](Cc3cn(C(=O)C(F)(F)F)cn3)NC(=O)[C@@H]3CCCC3C2=O)C(=O)N2C[C@H](O)C[C@H]2C(=O)N[C@@H](Cc2c[nH]c3ccccc23)C(=O)N[C@@H](CO)C(=O)N[C@@H](Cc2c[nH]c3ccccc23)C(=O)N1C` (some centres unmarked) [Example 1403]: for the setting “numeric values”, the IC50 stood at 7 nM.
Take `CCCC[C@H]1C(=O)N(C)[C@@H](CCCC)C(=O)N[C@@H](C)C(=O)N[C@H](C(=O)NCC(N)=O)CSCC(=O)N[C@@H](Cc2ccc(O)cc2)C(=O)N(C)[C@@H](C)C(=O)N[C@H]2CC(=O)NCC[C@H](NC(=O)[C@H](Cc3cnc[nH]3)NC(=O)[C@@H]3CCCN3C2=O)C(=O)N2C[C@H](O)C[C@H]2C(=O)N[C@@H](Cc2c[nH]c3ccccc23)C(=O)N[C@@H](CO)C(=O)N[C@@H](Cc2c[nH]c3ccccc23)C(=O)N1C` [Example 1500] ({CH2CO}-Y[NMeA]DPH[Dab][Hyp]WSW[NMeNle][NMeNle]ACG-NH2; lactam 3-6; thioether N-14): the IC50 (range classes) was in the range of 10 to 99 nM.
For `CCCC[C@H]1C(=O)N(C)[C@@H](CCCC)C(=O)N[C@@H](C)C(=O)N[C@H](C(=O)NCC(N)=O)CSCC(=O)N[C@@H](Cc2ccc(O)cc2)C(=O)N(C)[C@@H](C)C(=O)N[C@H]2CCC(=O)NCC[C@H](NC(=O)[C@H](Cc3cnc[nH]3)NC(=O)[C@@H]3CCCN3C2=O)C(=O)N2C[C@H](O)C[C@H]2C(=O)N[C@@H](Cc2c[nH]c3ccccc23)C(=O)N[C@@H](CO)C(=O)N[C@@H](Cc2c[nH]c3ccccc23)C(=O)N1C` [Example 1501] ({CH2CO}-Y[NMeA]EPH[Dab][Hyp]WSW[NMeNle][NMeNle]ACG-NH2; lactam 3-6; thioether N-14), under “range classes”, the IC50 was in the range of 10 to 99 nM.
On the same count and under the same terms, to `CCCC[C@H]1C(=O)N(C)[C@@H](CCCC)C(=O)N[C@@H](C)C(=O)N[C@H](C(=O)NCC(N)=O)CSCC(=O)N[C@@H](Cc2ccc(O)cc2)C(=O)N(C)[C@@H](C)C(=O)N[C@H]2CCNC(=O)CC[C@H](NC(=O)[C@H](Cc3cnc[nH]3)NC(=O)[C@@H]3CCCN3C2=O)C(=O)N2C[C@H](O)C[C@H]2C(=O)N[C@@H](Cc2c[nH]c3ccccc23)C(=O)N[C@@H](CO)C(=O)N[C@@H](Cc2c[nH]c3ccccc23)C(=O)N1C` [Example 1504] ({CH2CO}-Y[NMeA][Dab]PHE[Hyp]WSW[NMeNle][NMeNle]ACG-NH2; lactam 3-6; thioether N-14) belongs 10 to 99 nM; to `CCCC[C@H]1C(=O)N(C)[C@@H](CCCC)C(=O)N[C@@H](C)C(=O)N[C@H](C(=O)NCC(N)=O)CSCC(=O)N[C@@H](Cc2ccc(O)cc2)C(=O)N(C)[C@@H](C)C(=O)N[C@H]2CCC(=O)NCCC[C@H](NC(=O)[C@H](Cc3cnc[nH]3)NC(=O)[C@@H]3CCCN3C2=O)C(=O)N2C[C@H](O)C[C@H]2C(=O)N[C@@H](Cc2c[nH]c3ccccc23)C(=O)N[C@@H](CO)C(=O)N[C@@H](Cc2c[nH]c3ccccc23)C(=O)N1C` [Example 1505] ({CH2CO}-Y[NMeA]EPH[Orn][Hyp]WSW[NMeNle][NMeNle]ACG-NH2; lactam 3-6; thioether N-14), 10 to 99 nM; to `CCCC[C@H]1C(=O)N(C)[C@@H](CCCC)C(=O)N[C@@H](C)C(=O)N[C@H](C(=O)NCC(N)=O)CSCC(=O)N[C@@H](Cc2ccc(O)cc2)C(=O)N(C)[C@@H](C)C(=O)N[C@H]2CCCNC(=O)CC[C@H](NC(=O)[C@H](Cc3cnc[nH]3)NC(=O)[C@@H]3CCCN3C2=O)C(=O)N2C[C@H](O)C[C@H]2C(=O)N[C@@H](Cc2c[nH]c3ccccc23)C(=O)N[C@@H](CO)C(=O)N[C@@H](Cc2c[nH]c3ccccc23)C(=O)N1C` [Example 1506] ({CH2CO}-Y[NMeA][Orn]PHE[Hyp]WSW[NMeNle][NMeNle]ACG-NH2; lactam 3-6; thioether N-14), 10 to 99 nM.
Same read-out and setting: the result for `CCCC[C@H]1C(=O)N(C)[C@@H](CCCC)C(=O)N[C@@H](C)C(=O)N[C@H](C(=O)NCC(N)=O)CSCC(=O)N[C@@H](Cc2ccc(O)cc2)C(=O)N(C)[C@@H](C)C(=O)N[C@H]2CC(=O)NCCCC[C@H](NC(=O)[C@H](Cc3cnc[nH]3)NC(=O)[C@@H]3CCCN3C2=O)C(=O)N2C[C@H](O)C[C@H]2C(=O)N[C@@H](Cc2c[nH]c3ccccc23)C(=O)N[C@@H](CO)C(=O)N[C@@H](Cc2c[nH]c3ccccc23)C(=O)N1C` [Example 1507] ({CH2CO}-Y[NMeA]DPHK[Hyp]WSW[NMeNle][NMeNle]ACG-NH2; lactam 3-6; thioether N-14) reads 10 to 99 nM.
With `CCCC[C@H]1C(=O)N(C)[C@@H](CCCC)C(=O)N[C@@H](C)C(=O)N[C@H](C(=O)NCC(N)=O)CSCC(=O)N[C@@H](Cc2ccc(O)cc2)C(=O)N(C)[C@@H](C)C(=O)N[C@H]2CC(=O)NCCC[C@H](NC(=O)[C@H](Cc3cnc[nH]3)NC(=O)[C@@H]3CCCN3C2=O)C(=O)N2C[C@H](O)C[C@H]2C(=O)N[C@@H](Cc2c[nH]c3ccccc23)C(=O)N[C@@H](CO)C(=O)N[C@@H](Cc2c[nH]c3ccccc23)C(=O)N1C` [Example 1508] ({CH2CO}-Y[NMeA]DPH[Orn][Hyp]WSW[NMeNle][NMeNle]ACG-NH2; lactam 3-6; thioether N-14), the IC50 (range classes) fell in the range of 10 to 99 nM.
Same read-out and setting: to `CCCC[C@H]1C(=O)N(C)[C@@H](CCCC)C(=O)N[C@H]2CCC(=O)NCCCC[C@H](NC(=O)[C@H](Cc3c[nH]c4ccccc34)NC(=O)CN(C)C(=O)[C@H](CC(C)C)NC(=O)[C@H](Cc3c[nH]cn3)NC(=O)[C@@H]3CCCN3C(=O)[C@H](CC(N)=O)NC(=O)[C@H](C)N(C)C(=O)[C@H](Cc3ccccc3)NC(=O)CSC[C@@H](C(=O)NCC(N)=O)NC2=O)C(=O)N[C@@H](Cc2c[nH]c3ccccc23)C(=O)N1C` [Example 5001] ({CH2CO}-F[NMeA]NPHL[Sar]WKW[NMeNle][NMeNle]ECG-NH2; lactam 9-13; thioether N-14) belongs 3 to 9.9 nM; to `CCCC[C@H]1C(=O)N(C)[C@@H](CCCC)C(=O)N[C@H]2CCCCNC(=O)CC[C@H](NC(=O)[C@H](Cc3c[nH]c4ccccc34)NC(=O)CN(C)C(=O)[C@H](CC(C)C)NC(=O)[C@H](Cc3c[nH]cn3)NC(=O)[C@@H]3CCCN3C(=O)[C@H](CC(N)=O)NC(=O)[C@H](C)N(C)C(=O)[C@H](Cc3ccccc3)NC(=O)CSC[C@@H](C(=O)NCC(N)=O)NC2=O)C(=O)N[C@@H](Cc2c[nH]c3ccccc23)C(=O)N1C` [Example 5002] ({CH2CO}-F[NMeA]NPHL[Sar]WEW[NMeNle][NMeNle]KCG-NH2; lactam 9-13; thioether N-14), 10 to 99 nM.
Still for that read-out and setting: the result for `CCCC[C@H]1C(=O)N(C)[C@@H](CCCC)C(=O)N[C@H]2CCC(=O)NCCC[C@H](NC(=O)[C@H](Cc3c[nH]c4ccccc34)NC(=O)CN(C)C(=O)[C@H](CC(C)C)NC(=O)[C@H](Cc3c[nH]cn3)NC(=O)[C@@H]3CCCN3C(=O)[C@H](CC(N)=O)NC(=O)[C@H](C)N(C)C(=O)[C@H](Cc3ccccc3)NC(=O)CSC[C@@H](C(=O)NCC(N)=O)NC2=O)C(=O)N[C@@H](Cc2c[nH]c3ccccc23)C(=O)N1C` [Example 5003] ({CH2CO}-F[NMeA]NPHL[Sar]W[Orn]W[NMeNle][NMeNle]ECG-NH2; lactam 9-13; thioether N-14) reads 10 to 99 nM.

The record behind these values is patent publication US10143746B2, “Immunomodulators” (BRISTOL-MYERS SQUIBB COMPANY, priority 2016, dated 2018).
